According to patent EP0288278B1, “Chemical derivatives of GHL-CU” (PROCYTE CORPORATION, priority 1987, dated 1994):

Tested on: incision wounds
Experiment: Wound healing of incision wounds in mice
Format: in vivo
Details: incision wounds swabbed daily, scored after 5 days
Text: In mice, incision wounds to the flanks (six 1.5 cm wounds per animal) were swabbed daily with either a solution containing GHL-Cu (100 micrograms per mL) in phosphate-buffered saline (PBS) or PBS alone (6 animals each group). After 5 days, the wounds were scored 1.0 for complete closure, 0.5 for partial closure, and 0.0 for non-closure.

Row | Substance | healing of wounds in mice
1 | glycyl-L-histidyl-L-lysine n-stearyl ester: copper (II) | significantly enhances the wound-healing process
2 | glycyl-L-histidyl-L-lysine n-palmityl ester: copper (II) | significantly enhances the wound-healing process
